Reference: US7767674B2, “Kinase inhibitors” (Eli Lilly and Company, priority 2004, dated 2010)

Experiments:
p38 kinase enzyme = p38 kinase enzyme (Homo sapiens, UniProt Q16539); assay: Inhibition of p38 kinase (33P-ATP, EGF peptide 661-681 substrate); format: biochemical; conditions: 33P-ATP assay, 40 min at 30° C.
Description: The kinase buffer solution is prepared by combining 2.5 mL 1M Tris-HCl (pH 7.5), 0.1 mL 1M dithiothreitol, 1.0 mL 1M magnesium chloride, and 300 μL 1% Triton X-100 and diluting to 100 mL with water. 84 mL of this kinase buffer solution is combined with 16 mL DMSO to prepare the 16% DMSO solution.
The 200 μM ATP solution is prepared by adding 102.6 μL 10 mM aqueous ATP, 25 μL ^33P-ATP, and 163.5 μL of 4 mM aqueous Epidermal Growth Factor Peptide 661-681 (Biomol, Catalog #P-121) in 5 mL kinase buffer solution.
The p38 kinase enzyme solution is prepared by dissolving 9.5 μL concentrated enzyme solution (250 ng p38 enzyme/μL kinase buffer solution) in 1536 μL kinase buffer solution.
An 80 μM solution of each test compound and control compound are prepared by dissolving 2 μL of a 10 mM stock solution of the respective compounds in dimethylsulfoxide in 248 μL of the 16% DMSO solution in a Costar 96-well microtiter plate. The plate is placed onto the Tecan Genesis automated liquid handler for 1:3 serial dilutions.
10 μL of serially diluted compound is placed with a Beckman Multimek 96-well automated liquid handler to the assay plate. 20 μL of 200 μM ATP solution is added with a Titertek Multidrop 8-channel liquid handler. 10 μL of p38 kinase enzyme solution is transferred to the assay plate using the Multimek. The mixture is allowed to react for 40 min at 30° C. and then the reaction is stopped by adding 60 μL of freshly prepared 5% glacial AcOH with Multidrop. 80 μL of this solution is transferred to an “MAPH” plate using the Multimek. The plates are allowed to set for 30 min at room temperature and then washed/aspirated on the Titertek MAP extractor with freshly prepared 0.5% glacial AcOH (1×300 μL, 2×200 μL). […] The plates are allowed to sit for 30 min and counted on a PE/Wallac Microbeta Trilux scintillation counter for ^33P-isotope.
All exemplified compounds are initially tested at 10 concentrations (20 μM-1 nM using 1:3 serial dilutions). […] IC50 values are calculated (IDBS ActivityBase software) for each compound using non-linear regression. […]

[1] = test system: TNF-α in synovial lavage fluid; assay: Effect on intra-articular LPS induced TNF-α, rat ankle synovial lavage fluid; format: in vivo; conditions: oral, female Lewis rats, intra-articular LPS 10 μg one hour after compound, lavage after two hours, read-out: ED50, inhibition of TNF-α synthesis in synovial lavage fluid
Description: Intra-articular injection of LPS into rat ankles induces the synthesis of TNF-α, which can be measured in synovial lavage fluid. High levels of TNF-α are detectable within 2 hours. Since the joint is the site where arthritis develops, this model can rapidly determine whether an orally administered compound has an effect on an inflammatory response in the synovium.
Six female Lewis rats (150-200 g) are place in each treatment group. The animals are given vehicle (1% NaCarboxymethylcellulose-0.25% Tween 80) or test compound (1 mg/kg, 3 mg/kg, 10 mg/kg, and 30 mg/kg) orally. One hour later, 10 μl LPS (10 μg) is administered intra-articularly into the right ankle of each rat, while the left ankle receives 10 μL of saline. After two hours, each ankle is lavaged with 100 μL of saline. The lavage is collected and stored at −80° C.
TNF-α is measured with a commercially available ELISA kit (R&D, RTA00). Treatment with Example 100 produced a dose response inhibition of TNF-α synthesis, as measured in the synovial lavage fluid with ED50=30 mg/kg.

[2] = test system: TNFa-levels in the plasma; assay: Inhibition of TNF in vivo, LPS-challenged mice, plasma TNFa by ELISA; conditions: p.o., female Balb/c mice, LPS IP 400 ug/kg 1 hr after compound, plasma 1.5 hrs after LPS
Description: Compounds are administered p.o. (30, 10, 3 and 1 mg/kg) to female Balb/c mice (6 mice/dose). 1 hr following compound administration at 4 doses (P.O. at volume of 0.1 mL/mouse; vehicle: 1% NaCMC/0.25% Tween-80 in water); mice are given an IP-injection of LPS at 400 ug/kg. 1.5 hrs after LPS challenging, mice are anesthetized with isoflurane and blood is taken via cardiac puncture. TNFa-levels in the plasma are determined using ELISA kit from R&D Systems and dose response ED50 is determined.

[3] = test system: TNF-α production in mouse peritoneal macrophages; assay: Inhibition of TNF-α in vitro, LPS/interferon-γ stimulated mouse peritoneal macrophages, Luminex detection; format: cell-based; conditions: Peritoneal macrophage, LPS 50 ng/mL + interferon-γ 10 U/mL, 18 hr, read-out: IC50, suppression of TNF-α in vitro
Description: 1 mL thioglycolate broth (5.0 g yeast extract, 15.0 g casitone or trypticase, 5.0 g dextrose, 2.5 g sodium chloride, 0.75 g L-cystine, 0.5 g sodium thioglycolate, 1.0 mg resazurin, and 0.75 g agar in 1.0 L distilled water) are injected into the peritoneal cavity of Balb/C female mice. At day 4 or 5 post-injection the mice are sacrificed and then injected i.p. with 4 mL RPMI-1640 medium (BioWhittaker) and the peritoneal macrophages are withdrawn by syringe. Mouse peritoneal microphages are counted with a hemocytometer and adjusted to 5×10^5 cells/well in 96-well plates in RPMI-1640 medium with 10% fetal bovine serum. 200 μL/well is plated in 96-well plates and the cells allowed to settle and adhere to the bottom of the well for at least 3 hr. The test compound or standard p38 kinase inhibitor is pre-treated using a series of 8 concentrations for 1 hr at 37° C. (20 μL/well). The cells are treated with a mixture of 50 ng/mL lipopolysaccharide (LPS) and 10 U/mL interferon-γ for 18 hr at 37° C. (20 μL/well). The conditioned media is harvested and assayed for TNF-α production using the Luminex procedure. […] Standards and samples are read on a Luminex machine. These intensity readings are then converted to picogram/milliliter units based on a 12-point standard curve created in duplicate using a four-parameter logistic regression method (Bio-Plex Manager 2.0, Bio-Rad), and the IC50 calculated.

Sequence of p38 kinase enzyme (Q16539 whole entry): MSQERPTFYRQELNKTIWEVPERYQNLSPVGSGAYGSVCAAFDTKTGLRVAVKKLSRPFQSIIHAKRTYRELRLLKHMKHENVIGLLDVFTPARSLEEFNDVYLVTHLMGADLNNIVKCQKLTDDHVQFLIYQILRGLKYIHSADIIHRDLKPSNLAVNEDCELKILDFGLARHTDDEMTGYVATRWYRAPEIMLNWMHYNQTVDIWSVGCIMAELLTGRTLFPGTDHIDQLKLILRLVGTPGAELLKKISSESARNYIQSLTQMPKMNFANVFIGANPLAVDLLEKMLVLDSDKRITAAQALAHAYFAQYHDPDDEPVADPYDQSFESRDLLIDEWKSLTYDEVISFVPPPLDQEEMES

IC50 (p38 kinase enzyme) [nM] | IC50 [3] [nM] | SMILES | ED50 [1] [mg/kg] | TMED50, suppression of TNF in vivo [2] [mg/kg]
19 | – | Cn1nc(C(C)(C)C)cc1NC(=O)Nc1cc(F)cc(OC2CCN(C(=O)C(C)(C)C)CC2)c1 [Example 70, 1-(5-tert-Butyl-2-methyl-2H-pyrazol-3-yl)-3-{3-[1-(2,2-dimethyl-propionyl)-piperidin-4-yloxy]-5-fluoro-phenyl}-urea] | – | –
10 | 11 | Cn1nc(C(C)(C)C)cc1NC(=O)Nc1ccc(CN2CCN(C(=O)c3c(F)cccc3F)CC2)cc1 [Example 100] | 30 | 2.4
91 | – | Cc1ccc(-n2nc(C(C)(C)C)cc2NC(=O)Nc2ccc(N3CCN(C(=O)C(C)(C)C)CC3)cc2)cc1 [Example 136] | – | –
